Results published in patent publication US20250064859A1, “HPSC-DERIVED ARTICULAR CHONDROCYTE COMPOSITIONS, SYSTEMS AND METHODS OF USE THEREOF” (The Children's Medical Center Corporation, priority 2022, published 2025).

Columns and labels:
Assay type in all cases: cell-based, human
paraxial mesoderm = assay: Chondrogenic potential of day 14 paraxial mesoderm induced with (420i) or without (420) the Wnt inhibitor in stage 2; conditions: 420 mesoderm treated with the Wnt inhibitor from day 3-5 of differentiation/stage 2
Procedure: Five experiments were conducted, and qPCR tests were performed on the cells after 4 weeks and the data was pooled and analyzed. In a second test, 420 and 420i paraxial mesoderm cells were plated in micromass cultures supplemented with TGFβ and qPCR was performed after 12 weeks of micromass expansion. In a third test, 420 and 420i paraxial mesoderm cells were plated in serum-free monolayer culture with no additional factors and qPCR was performed following 4 weeks of culture. A second group of 420 and 420i paraxial mesoderm cells were plated in serum-free monolayer culture supplemented with either FGF alone or with a mixture of FGF, TGFβ and Forskolin (FSK). qPCR was performed after 4 weeks in culture.

[1] = test system: monolayer-derived chondrocytes; assay: Micromasses seeded with monolayer-derived chondrocytes and treated with TGFβ or BMP; phenotype and qPCR; conditions: for cartilage phenotype induced in micromass culture: monolayer-derived chondrocytes plated in micromass
Description: FIGS. 9A-9C are bar graphs showing relative mRNA copy number for COL10A1 (growth plate cartilage marker) (FIG. 9A), PRG4 (articular cartilage marker) (FIG. 9B) and COL2A1 (general cartilage marker) (FIG. 9C) of monolayer-derived chondrocytes (derived with either FGF-alone or the combination of TGFβ+FGF+FSK treatment) that were subsequently cultured in micromass for 6 weeks in the presence of TGFβ or BMP4 to generate articular or growth plate-like chondrocytes and cartilage tissues. FIGS. 9D-9F are bar graphs showing mRNA copy number for COL10A1 (FIG. 9D), PRG4 (FIG. 9E) and COL2A1 (FIG. 9F) of monolayer-derived chondrocytes (derived with either FGF-alone or the combination of TGFβ+FGF+FSK treatment) that were subsequently cultured in micromass (uM) for 12 weeks in the presence of TGFβ or BMP4 to generate articular or growth plate-like chondrocytes and cartilage tissues.
Micromasses were seeded with monolayer-derived chondrocytes and were treated with TGFβ to induce articular cartilage (i.e., to reproduce “superficial zone-like” chondrocytes that express PRG4) or with BMP to induce growth plate cartilage (GPC; i.e., to produce hypertrophic chondrocytes that express COL10A1). Monolayer-derived chondrocytes were generated with the following compositions: FGF alone or TGF+FGF+FSK30.

[2] = test system: micromass cultures (hPSC-derived articular cartilage tissues); assay: BMP4 challenge of TGFβ3-treated micromass cultures; COL10A1 mRNA normalized to TBP
Description: FIGS. 17A-17C depict copy number COL10A1 mRNA normalized to TBP in micromass cultures at indicated timepoints and treatment regimens. FIG. 17A depicts copy number COL10A1 mRNA in micromass cultures treated with TGFB3 from 2-24 weeks, and in TGFB3-treated micromass cultures that were switched to BMP4-supplemented media after 2 weeks (BMP4 @2w), 2 weeks, and 4, 6, 8, 10, 12 weeks in which gene expression was quantified after 2, 6, 12, or 24 weeks after switching media to BMP4-supplementation. FIG. 17B and FIG. 17C depict copy number PRG4 (FIG. 17B) and COL10A1 (FIG. 17C) in micromass cultures after 2, 6, 12, and 24 weeks (w).
FIGS. 17A-C depict copy number COL10A1 mRNA normalized to TBP in micromass cultures at indicated timepoints and treatment regimens. […] Data represents average of 4 biological replicates, error bars indicate standard error.

Compound	chondrogenic potential of paraxial mesoderm (paraxial mesoderm)	COL10A1 (hypertrophic chondrocyte/GPC gene) expression ([1]; micromass, regardless of monolayer treatment prior to micromass culture)	cartilage phenotype induced in micromass culture [1]	COL10A1 mRNA response to BMP4 challenge ([2]; micromass treated with TGFβ for 8 weeks or less prior to BMP4)	COL10A1 mRNA response to BMP4 challenge ([2]; micromass treated with TGFβ for at least 10 weeks prior to BMP4)	PRG4 (articular cartilage gene) expression ([1]; micromass)
Cc1ccc2nc(NC(=O)CSc3nc4c(c(=O)n3-c3ccccc3)SCC4)sc2c1 [IWP2, N-(6-Methyl-2-benzothiazolyl)-2-[(3,4,6,7-tetrahydro-4-oxo-3-phenylthieno[3,2-d]pyrimidin-2-yl)thio]-acetamide]	increased chondrogenic potential	–	–	–	–	–
BMP4: Bone Morphogenetic Protein 4, used to induce growth plate cartilage	–	higher	induces growth plate cartilage phenotype	upregulate COL10A1 mRNA	do not upregulate COL10A1 mRNA	–
TGFB: transforming growth factor β3, TGFβ agonist used to induce articular cartilage	–	–	induces articular-like cartilage phenotype	–	–	higher
